The text below walks through data of PubChem BioAssay AID463203 (Broad Institute, 2010).

The assay has as its target Glycogen synthase kinase-3 alpha (Homo sapiens) (UniProt P49840). The experiment in a line: concentration-response blocking of human GSK3A – biochemical, luminescence, cell-free homogeneous, retest, dose response (AID 463203). The following applies: GSK-3 alpha enzyme, ADP-Glo luminescence, 60 min. For orientation: In ADP-Glo the light output rises with the ADP produced.

Structures are written as SMILES. Active and inactive are the calls of the source.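 Rule for the calls: active = more than half of replicate measurements showing over 20% loss of kinase signal relative to plate controls; inconclusive = some but at most half of replicates over 20% loss; inactive = no replicate over 20% signal loss.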

Chain of Glycogen synthase kinase-3 alpha (Homo sapiens) (P49840 whole entry, looked up): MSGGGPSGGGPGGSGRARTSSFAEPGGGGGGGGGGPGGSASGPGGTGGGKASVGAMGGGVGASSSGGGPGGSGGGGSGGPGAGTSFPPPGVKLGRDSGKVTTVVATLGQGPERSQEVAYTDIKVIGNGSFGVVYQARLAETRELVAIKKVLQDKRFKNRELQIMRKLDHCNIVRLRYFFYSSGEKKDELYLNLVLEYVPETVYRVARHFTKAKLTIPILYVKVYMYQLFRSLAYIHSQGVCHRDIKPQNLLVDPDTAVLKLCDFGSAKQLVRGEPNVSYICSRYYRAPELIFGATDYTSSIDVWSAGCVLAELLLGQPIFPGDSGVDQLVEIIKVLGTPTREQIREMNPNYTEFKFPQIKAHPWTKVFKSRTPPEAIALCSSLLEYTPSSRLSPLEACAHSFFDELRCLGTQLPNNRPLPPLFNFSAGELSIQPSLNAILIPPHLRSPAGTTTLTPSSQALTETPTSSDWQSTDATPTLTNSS

The term AC50 denotes the concentration giving half of the maximal activity seen. For `C=CCN=C1NN=C(c2ccc3c(c2)OCCO3)CS1`, the AC50 is > 30 µM (inactive). On to `O=C(Nc1cccc(Cl)c1N1CCCC1)c1ccc(Br)o1`, for which the AC50 is > 30 µM (inactive). Take `CCOC(=O)CSc1nc(C)[nH]c1[N+](=O)[O-]`: the AC50 is > 30 µM (inactive). For the molecule `CCn1ncc([N+](=O)[O-])c1C(=O)N1CCCC1`, the AC50 is > 30 µM (inactive).

For the molecule `O=[N+]([O-])c1cc(S(=O)(=O)N2CCCCC2)ccc1NCCCN1CCOCC1`, the AC50 is > 30 µM (inactive). With `Cc1cccc(/C(N)=N/OC(=O)c2ccc3c(c2)OCO3)c1` the figure was 24.7 µM; with `CC(C)CN(C(=O)CN1CC=C(c2ccccc2)CC1)c1c(N)n(CC(C)C)c(=O)[nH]c1=O`, > 30 µM (inactive); with `CC1=C(C(=O)OCc2ccccc2)C(c2cccc(F)c2)NC(=O)N1` (stereo not drawn), > 30 µM (inactive). The same measure for `CN(C)c1cccc(C(=O)N/N=C/c2ccccc2F)c1`: > 30 µM (inactive); for `CC(=S)/C=C1\Sc2ccccc2N1C`: > 30 µM (inactive). In the case of `COC(=O)c1cc(O)c(OCc2ccccc2)c(O)c1`, the AC50 was > 30 µM (inactive). With `O=C(O)c1ccc(N=Cc2c(O)ccc3oc4c(c23)CCCC4)cc1` the figure was > 30 µM (inactive); with `Cn1c(=O)c2c(-c3ccccc3)n(Cc3ccccn3)cc2n(C)c1=O`, > 30 µM (inactive). Regarding `O=C(Nc1cccc(Cl)c1N1CCOCC1)c1ccc(Br)o1`, the AC50 was > 30 µM (inactive). As to `CC(C)NC(=O)/C(=C\c1cccc([N+](=O)[O-])c1)NC(=O)c1ccccc1`, the AC50 is > 30 µM (inactive). In the case of `c1ccc2sc(-c3ccc4c(c3)OCO4)nc2c1`, the AC50 is > 30 µM (inactive). With `O=C(CCSc1nc(-c2ccc3c(c2)OCO3)cc(C(F)(F)F)n1)NCc1ccco1`, the AC50 was > 30 µM (inactive). In the case of `Fc1ccccc1-c1n[nH]c(=S)n1/N=C/c1c[nH]c2ccccc12`, the AC50 was 22.5 µM. Regarding `CCSc1ccccc1C(=O)Nc1cccnc1`, the AC50 was > 30 µM (inactive). For the molecule `CCOc1ccc(-c2nnc(N)o2)cc1`, the AC50 was > 30 µM (inactive). Take `CC1=C(C#N)c2nc(N)c(C#N)c(C)c2/C1=C\c1ccc(OCC(=O)O)c(Cl)c1`: the AC50 is 20.4 µM. On to `CCOc1ccc(-c2nonc2NC(=O)c2ccco2)cc1`, for which the AC50 was > 30 µM (inactive). Consider `O=c1c(OC2OC(CO)C(O)C(O)C2O)c(-c2ccc(O)c(O)c2)oc2cc(O)cc(O)c12` (stereo not drawn), for which the AC50 was > 30 µM (inactive).

For `COc1ccc2c3c(cccc13)OC2=O`, the AC50 was > 30 µM (inactive).

As to `O=[N+]([O-])c1cnc2nc(-c3ccncc3)nn2c1O`, the AC50 is 8.27 µM. The same measure for `CC(C)(C)NC(=O)/C(=C/c1ccccc1F)NC(=O)c1ccc([N+](=O)[O-])cc1`: > 30 µM (inactive); for `Cc1ccc2oc(=O)c3cnn(CC(=O)N4CCc5ccccc5C4)c3c2c1`: > 30 µM (inactive). The same measure for `COc1ccc(-n2c(O)c(C=NCCCn3ccnc3)c(=O)[nH]c2=O)cc1`: 5.43 µM; for `Cc1ccnc(NC(=O)CCC(=O)N(CC(=O)NCc2ccc(F)cc2)Cc2ccccc2)c1`: 11.4 µM. As for `Brc1ccc(-c2nc3ncccn3c2NC2CCCCC2)o1`, the AC50 is 2.61 µM. `COc1ccc(CCNc2cc(C)nc(N)n2)cc1OC`: the AC50 was > 30 µM (inactive).

In the case of `C/C(=N\NC(=O)c1ccccc1NC(=O)c1ccc(Cl)cc1)c1ccncc1`, the AC50 was 12.6 µM.

For the molecule `O=C(N/N=C/c1cccnc1)c1cccc(S(=O)(=O)N2CCCC2)c1`, the AC50 was > 30 µM (inactive).

On to `O=C1Nc2ccccc2Sc2ccccc21`, for which the AC50 was > 30 µM (inactive). For the molecule `Cc1nc2ncnn2c(C)c1Cc1cccc(F)c1`, the AC50 was > 30 µM (inactive). The same measure for `O=C(Nc1nc2c(s1)CCCC2)c1ccc(Br)s1`: > 30 µM (inactive); for `CCOc1cccc(-c2c(C(=O)N/N=C/c3ccncc3)nnn2-c2nonc2N)c1`: 2.13 µM. On to `O=C(Cn1ncc2c(=O)oc3ccccc3c21)N1CCc2ccccc2C1`, for which the AC50 is > 30 µM (inactive). `CCOC(=O)C1=C(c2ccccc2)Nc2ncnn2C1c1cccc(O)c1` (stereo not drawn): the AC50 is 22.9 µM.

Turning to `CCCCN(CCCC)S(=O)(=O)c1ccc2oc(C(=O)N3CCOCC3)c(C)c2c1`, the AC50 is > 30 µM (inactive). As to `Nc1nonc1-n1nnc(C(=O)N/N=C/c2cccc(Cl)c2)c1-c1cccs1`, the AC50 is 0.614 µM.

Regarding `CCN=C(NC#N)SCc1c(F)cccc1Cl`, the AC50 is > 30 µM (inactive).

For `N#CCC(=O)Nc1sc2c(c1C(N)=O)CCCC2`, the AC50 was 20.2 µM. The same measure for `O=C(O)c1[nH]c2ccc([N+](=O)[O-])cc2c1-c1ccccc1`: 11 µM; for `CC(=O)Oc1cc(O)c2c(=O)c(OC(C)=O)c(-c3ccc(OC(C)=O)c(OC(C)=O)c3)oc2c1`: 15.4 µM. With `Cc1nn(CCOc2ccccc2)c(=O)n1-c1ccccc1F` the figure was > 30 µM (inactive); with `CCOC(=O)c1c(Cc2ccccc2)c[nH]c1C`, > 30 µM (inactive); with `O=C(c1ccc(Cn2cnnn2)cc1)N1CCCC(Nc2ccc(F)cc2)C1` (stereo not drawn), 16.1 µM.

Consider `Clc1ccccc1/C=N/Nc1cc(N2CCOCC2)ncn1`, for which the AC50 is > 30 µM (inactive).

Turning to `CCOC(=O)Cc1csc(NC(=O)C2CCCN(S(=O)(=O)c3cnc[nH]3)C2)n1` (stereo not drawn), the AC50 is > 30 µM (inactive). As for `NS(=O)(=O)c1ccc(-c2ccc(/C=C3\SC(=O)NC3=O)o2)cc1`, the half-maximal activity concentration (AC50) was 5.29 µM. With `Fc1ccccc1N1CCN(CCCNc2ccc3nncn3n2)CC1`, the AC50 is > 30 µM (inactive).

Regarding `N#Cc1c(N)n(CCNC(=O)c2cccs2)c2nc3ccccc3nc12`, the AC50 is 25.7 µM. Consider `Fc1ccccc1/C=N/Nc1cc(N2CCCCC2)ncn1`, for which the AC50 was > 30 µM (inactive).

Take `CCOC(=O)c1c(-c2cccc([N+](=O)[O-])c2)csc1N`: the half-maximal activity concentration (AC50) is 6.81 µM. Take `Oc1ccc(-c2nc3ncccn3c2Nc2ccc3c(c2)OCO3)cc1`: the AC50 is 6.33 µM. The same measure for `CC(C)(C)NC(=O)/C(=C\C=C\c1ccccc1)NC(=O)c1ccc([N+](=O)[O-])cc1`: > 30 µM (inactive). For `Cc1nc2sc3c(c2c(=O)o1)CC(C)(C)OC3`, the AC50 is > 30 µM (inactive). Take `COc1ccc(S(=O)(=O)NCc2ccc(C(=O)N3CCC4(CC3)OCCO4)cc2)cc1`: the AC50 is > 30 µM (inactive).

With `c1ccc(Cn2nc(-c3ccccc3)nc2-c2ccccc2)cc1`, the AC50 is > 30 µM (inactive). Consider `CN(C)c1ccc(/C=N/NC(=O)c2nnn(-c3nonc3N)c2CN(C)c2ccccc2)cc1`, for which the AC50 was > 30 µM (inactive). With `COc1ccc(C(=O)NCC(=O)N/N=C/C=C/c2ccccc2)cc1OC` the figure was > 30 µM (inactive).

Turning to `CC1(c2ccccc2)CC(C)(C)N2C(=O)/C(=C3\SC(=S)NC3=O)c3cccc1c32` (stereo not drawn), the AC50 is > 30 µM (inactive). The same measure for `CCN1CCN(Cc2cc(OC)c(OC)cc2[N+](=O)[O-])CC1`: > 30 µM (inactive). In the case of `O=C(CSc1ncnc2sc3c(c12)CCC3)NCC1CCCO1` (stereo not drawn), the AC50 is > 30 µM (inactive).

Consider `COC(=O)C1=C(C)Nc2[nH]c(=S)[nH]c(=O)c2C1c1ccc(O)cc1` (stereo not drawn), for which the AC50 is > 30 µM (inactive).

`Cc1cc(O)c(Oc2cc(C)cc(O)c2O)c(O)c1`: the AC50 was > 30 µM (inactive). The same measure for `Cn1c(=O)c2c([nH]c(=O)n2C)n(Cc2ccccc2)c1=O`: > 30 µM (inactive); for `N#CC1=C(SCc2ccccc2)NC(=O)CC1c1ccco1` (stereo not drawn): > 30 µM (inactive); for `COc1ccc(-c2nnc(-c3ccccc3O)o2)cc1`: > 30 µM (inactive). In the case of `O=[N+]([O-])c1ccc(NCCCN2CCOCC2)nc1`, the AC50 was > 30 µM (inactive).

For `O=[N+]([O-])c1cccnc1N1CCCNCC1`, the AC50 is > 30 µM (inactive). With `COc1cccc(NC(=O)c2cnc[nH]2)c1`, the AC50 was > 30 µM (inactive). As to `CC(=O)C(Sc1ccc2nnc(-c3ccncc3)n2n1)C(C)=O`, the AC50 is > 30 µM (inactive). Consider `N#Cc1c(NC(=O)CSc2n[nH]c(N)n2)oc(-c2ccccc2)c1-c1ccccc1`, for which the AC50 is > 30 µM (inactive). Take `O=C1C2C3c4ccccc4C(c4ccccc43)C2C(=O)N1Cc1cccnc1` (stereo not drawn): the AC50 is > 30 µM (inactive).

On to `Fc1cccc(/C=N/Nc2cc(N3CCOCC3)ncn2)c1`, for which the AC50 is > 30 µM (inactive).

`O=C(CSCc1ccc([N+](=O)[O-])cc1)N/N=C/c1cccnc1`: the AC50 is > 30 µM (inactive). The same measure for `COc1ccc(C2CC(=O)N3CN(c4ccccc4F)CSC3=C2C#N)cc1OC` (stereo not drawn): > 30 µM (inactive); for `Nc1c(S(=O)(=O)c2ccccc2)nnn1-c1ccccc1`: > 30 µM (inactive); for `CCOC(=O)Nc1nc(C)c(C(=O)c2ccc(Cl)cc2)s1`: > 30 µM (inactive). Turning to `CCCNC(=O)NC(C(=O)OC)C12CC3CC(CC(C3)C1)C2` (stereo not drawn), the AC50 is > 30 µM (inactive). As for `CCN1C(=O)/C(=C2\SC(=S)N(c3c(C)n(C)n(-c4ccccc4)c3=O)C2=O)c2ccccc21`, the AC50 was > 30 µM (inactive).

With `CCCn1c2ccccc2c2nc3ccccc3nc21`, the AC50 was > 30 µM (inactive). For the molecule `CCN(C(=O)CN1CCCC(C)C1)c1c(N)n(Cc2ccccc2)c(=O)[nH]c1=O` (stereo not drawn), the AC50 is > 30 µM (inactive). Consider `COc1ccc2c3c(cccc13)C(=O)CC2`, for which the AC50 was > 30 µM (inactive). Regarding `COc1ccccc1N=c1oc2c(OC)cccc2cc1C(=O)NCc1ccco1`, the AC50 was > 30 µM (inactive). Regarding `S=C(NCc1ccccc1)NCc1ccc2c(c1)OCO2`, the AC50 was 14.2 µM. As for `COc1ccc(COC(=O)C2=C(C)NC(=O)NC2c2ccccc2F)cc1` (stereo not drawn), the AC50 is > 30 µM (inactive). The same measure for `CC(=NCCO)c1c(O)n(C2CCCCC2)c(=O)[nH]c1=O`: 26.9 µM; for `COc1ccc(O)c(-c2nc(N)nc(N)n2)c1`: 3.88 µM; for `O=C(Nc1cccnc1)c1scc2c1OCCO2`: 23.5 µM. As for `CCOc1cc(/C=N/Nc2ncnc(Cl)c2N)ccc1O`, the AC50 was 29.6 µM.
